One may read the inhibition as the percentage by which the read-out fell short of the control. Lower therefore signals little suppression. As a reminder, the IC50 is the concentration needed to halve the response being measured. For orientation: melting point means the temperature of the solid-liquid transition.

We go through 4 compounds from publication PMC6222820, “Synthesis of New Triarylpyrazole Derivatives Possessing Terminal Sulfonamide Moiety and Their Inhibitory Effects on PGE2 and Nitric Oxide Productions in Lipopolysaccharide-Induced RAW 264.7 Macrophages” (Molecules : A Journal of Synthetic Chemistry and Natural …, 2018).

Data set [1] has as its system LPS-induced RAW 264.7 macrophages. As to the kind of experiment: Nitric oxide (NO) production inhibition in LPS-induced RAW 264.7 macrophages (nitrite determination). The class given is cell-based. Conditions: for inhibition at 1 µM: RAW264.7, 1 µM; for inhibition at 1 µM / inhibition at 5 µM / inhibition at 10 µM / Nitric Oxide % Inhibition: LPS-induced RAW 264.7 macrophages; for inhibition at 5 µM: RAW264.7, 5 µM; for inhibition at 10 µM: RAW264.7, 10 µM; for IC50: means ± SD of three independent experiments, read-out: NO (IC50). As to the method: The ability of a certain molecule to inhibit the production of inflammatory mediator(s) is one of successful approach to treatment both chronic and acute inflammation.
(§1) Cell culture and sample treatment were performed as reported in the literature. The 3-(4,5-dimethylthiazol-2-yl)-2,5-diphenyltetrazolium bromide (MTT) assay for cell viability followed the procedure previously described in the literature. Nitrite determination was carried as described in the literature, and the PGE2 assay was carried as previously described.

The nature of data set [2]: MTT assay for cell viability / cytotoxicity. Conditions: mouse, RAW 264.7 macrophages, means ± SD of three independent experiments. Format: cell-based. As to the method: (§2) In addition to NO inhibition, the cytotoxic activity of compounds 1a–i, 2a–i, 3a–h, and 4a–h in RAW 264.7 macrophages were measured using the 3-(4,5-dimethylthiazol-2-yl)-2,5-diphenyltetrazolium bromide (MTT) assay to check whether the effects on the production of NO was caused by nonspecific cytotoxicity.
as §1
(In general: Formazan colour is commonly taken as a measure of viable cells.)

The subject of data set [3] is LPS-induced RAW 264.7 macrophages. The data set can be described thus: PGE2 production inhibition in LPS-induced RAW 264.7 macrophages. Conditions: means ± SD of three independent experiments; for inhibition at 1 µM: RAW264.7, 1 μM; for inhibition at 5 µM: RAW264.7, 5 μM; for inhibition at 10 µM: RAW264.7, 10 μM. Format: cell-based. How it is done: Compounds 1b, 1g, 2a, and 2c were able to inhibit more than 50% of the prostaglandin production at a dose 5 μM. The five compounds were able to reduce PGE2 production by over 75% at a dose of 10 μM.
as §1

Data set [4] relates to inducible nitric oxide synthase (iNOS). As to the kind of experiment: LPS-induced iNOS protein expression (SDS-PAGE / immunoblot of cellular lysates). Format: cell-based. Conditions: 20 µM; pretreatment 1 h, then LPS (1 μg/mL) 24 h; β-actin reference. How it is done:
As a result of their activity against both NO and PGE2 production and low cellular toxicity, compounds 1b, 1d, 1g, 2a, and 2c were tested for their inhibitory effect on the expression of both iNOS and COX-2. The cellular lysates were prepared from the with- and without-pretreatment tested compounds (5, 10, 20 μM) for one hour and then with LPS (1 μg/mL) for 24 h, using β-actin as a reference. […] Compound 1g might express its inhibitory effect on NO production mainly through inhibition of iNOS protein expression and partially through inhibition of iNOS enzyme activity.
Figure 3 Inhibitory activity of compounds 1b, 1d, 1g, 2a, and 2c on inducible nitric oxide synthase (iNOS) and Cyclooxygenase 2 (COX-2) Cellular lysates were prepared from the with/without pretreatment tested compound (5, 10, and 20 μM) for one hour and then with LPS (1 μg/mL) for 24 h. Total cellular proteins were resolved by sodium dodecyl sulphate-polyacrylamide gel electrophoresis (SDS-PAGE), transferred to Polyvinylidene fluoride (PVDF) membranes, and detected with specific iNOS and COX-2 antibodies. β-actin was used as an internal control.

The target in data set [5] is T1, iNOS (Mus musculus, UniProt P29477).
T1 construct: endogenous in cells; host or cells: RAW 264.7 macrophages, LPS-stimulated
As to the kind of experiment: iNOS enzyme activity in LPS-pretreated cells (Griess reaction). Conditions: 5, 10, or 20 μM for 12 h after LPS (1 µg/mL) 12 h. The class given is cell-based. As to the method: Figure 4 Effect of compounds 1b, 1d, 1g, 2a, and 2c on iNOS activity. Following pretreatment with lipopolysaccharide (LPS, 1 µg/mL) for 12 h and wash with phosphate buffer solution (PBS), cells were treated with 1g (5, 10, or 20 μM) for 12 h N^6-(1-Iminoethyl)-L-lysine. (L-NIL) (40 μM) was used as the positive control in the assay. Levels of NO in culture media were quantified using the Griess reaction assay. Data are presented as the means ± SD of three independent experiments. # p < 0.05 versus the control cells; *** p < 0.001 versus LPS-stimulated cells; * statistical significances were compared using ANOVA and Dunnett’s post hoc test.
A general note: The Griess reaction detects nitrite, a stable product of nitric oxide.

The test system of data set [6] is RAW 264.7 macrophages. The data set can be described thus: MTT assay for cell viability / cytotoxicity. The class given is cell-based. Conditions: means ± SD of three independent experiments. How it is done:
as §2, §1

The mark [7] stands for this setting: Mus musculus, RAW264.7, nitric oxide production.
The mark [8] stands for this setting: Mus musculus, RAW264.7, LPS-induced RAW 264.7 macrophages.

SMILES strings stand for the structures. Entries after “also recorded” stand apart in the source; their conditions may differ. A value given as a limit tells only on which side of the number the result lay.

`COc1cccc(-c2nn(-c3ccccc3)cc2-c2ccnc(NCCNS(=O)(=O)c3ccc(Br)cc3)c2)c1` [Compound 1b, 4-Bromo-N-(2-((4-(3-(3-methoxyphenyl)-1-phenyl-1H-pyrazol-4-yl)pyridin-2-yl)amino)ethyl)benzenesulfonamide] returned a melting point of 136 to 138 °C. Also, in data set [1] (Mus musculus), the inhibition at 1 µM worked out at 12.05 ± 0.11%, the inhibition at 5 µM came to 24.2 ± 0.98% and the inhibition at 10 µM came out at 68.7 ± 2.47%. In addition, in data set [1] (setting [7]), the IC50 was 7.9 ± 0.41 µM. The compound also showed an IC50 in data set [2] of 254.2 ± 2.54 µM. The IC50 in data set [3] (LPS-induced RAW 264.7 macrophages) was 4.75 ± 0.25 µM. In data set [3] (Mus musculus), testing at 1 µM gave an inhibition of 16.2 ± 0.79%, the inhibition at 5 µM is above 50% and the inhibition at 10 µM was 76.9 ± 1.34%. This compound displayed an IC50 in data set [3] (setting [8]) of 4.72 µM. In data set [4], the “Inhibition of iNOS expression” value is “partial inhibitory effect; also recorded: potential iNOS inhibitory effect”. Besides, the “Inhibition of iNOS enzyme activity” value in data set [5] is on record as “slightly inhibited iNOS enzyme activity in a dose-dependent manner”.

`COc1cccc(-c2nn(-c3ccccc3)cc2-c2ccnc(NCCNS(=O)(=O)c3ccc(F)cc3)c2)c1` [Compound 1d, 4-Fluoro-N-(2-((4-(3-(3-methoxyphenyl)-1-phenyl-1H-pyrazol-4-yl)pyridin-2-yl)amino)ethyl)benzenesulfonamide]: the melting point fell in the range of 155 to 156 °C. In data set [1] (Mus musculus), the inhibition at 1 µM came to 19.79 ± 0.14%, at 5 µM the inhibition was 29.4 ± 0.77% and 10 µM produced 61.3 ± 1.33% inhibition. For the same compound, the IC50 in data set [1] (setting [7]) worked out at 8.2 µM. The IC50 in data set [1] (nitric oxide production) is 8.23 ± 0.32 µM. For the same compound, the IC50 in data set [2] was 169.2 ± 1.64 µM. In data set [3] (Mus musculus), this compound gave an inhibition at 1 µM of 10.3 ± 0.81%, an inhibition at 5 µM of 49.6 ± 1.25% and an inhibition at 10 µM of 85.8 ± 2.64%. This compound showed a half-maximal inhibitory concentration (IC50) in data set [3] (setting [8]) of 5.06 ± 0.21 µM. Moreover, the “Inhibition of iNOS expression” value in data set [4] is on record as “partial inhibitory effect; also recorded: potential iNOS inhibitory effect”. Also, in data set [5], the “Inhibition of iNOS enzyme activity” value was “slightly inhibited iNOS enzyme activity in a dose-dependent manner”.

For `COc1cccc(-c2nn(-c3ccccc3)cc2-c2ccnc(NCCNS(=O)(=O)c3ccc(C)cc3)c2)c1` [Compound 1f, N-(2-((4-(3-(3-Methoxyphenyl)-1-phenyl-1H-pyrazol-4-yl)pyridin-2-yl)amino)ethyl)-4-methyl benzenesulfonamide], the results for the “Nitric Oxide % Inhibition” value in data set [1] (1 µM), in data set [1] (5 µM) and in data set [1] (10 µM) were 16.29 ± 0.10%, 26.54 ± 0.65% and 53.09 ± 2.10%, respectively. The IC50 in data set [1] (nitric oxide production) was 9.42 ± 0.12 µM; in data set [6], 291 ± 1.12 µM.

For the compound `COc1cccc(-c2nn(-c3ccccc3)cc2-c2ccnc(NCCNS(=O)(=O)c3ccc(C(F)(F)F)cc3)c2)c1` [Compound 1g, N-(2-((4-(3-(3-Methoxyphenyl)-1-phenyl-1H-pyrazol-4-yl)pyridin-2-yl)amino)ethyl)-4-(trifluoromethyl)benzenesulfonamide], the values for the inhibition at 1 µM in data set [1] (Mus musculus) and in data set [3] (Mus musculus) were 10.98 ± 0.07% and 19.9 ± 0.89%, respectively. In addition, the figures for the inhibition at 5 µM in data set [1] (Mus musculus) and in data set [3] (Mus musculus) were 23.6 ± 0.54% and above 50%, respectively. Besides, the inhibition at 10 µM in data set [1] (Mus musculus) came out at 60.8 ± 1.75%; in data set [3] (Mus musculus), 79.3 ± 2.19%. The IC50 came out at 8.55 ± 0.14 µM in data set [1] (setting [7]), 261.6 ± 1.57 µM in data set [2] and 4.55 ± 0.39 µM in data set [3] (setting [8]). Besides, the “Inhibition of iNOS expression” value in data set [4] was “complete inhibition; also recorded: potential iNOS inhibitory effect”. Moreover, the “Inhibition of iNOS enzyme activity” value in data set [5] is reported as “slightly inhibited iNOS enzyme activity in a dose-dependent manner”.
